“Also recorded” adds a separate entry of the source.
Columns and labels:
[1] = tested on: lysosomes of microglia; assay: Lysosomal swelling and damage in microglia after Aβ phagocytosis (LAMP-1, cathepsin B, LysoTracker); type: cell-based, mouse
Procedure: Neuronal, microglial, mixed neuronal/microglial and primary mixed glial cultures were fixed with 4% paraformaldehyde for 30 min and incubations with respective primary and secondary antibodies were performed for 2 h at room temperature in PBS containing 1% bovine serum albumin, 5% fetal calf serum and 0.05% saponin Cell nuclei were stained with Hoechst 33258 (1:1000).
(§1) For evaluation of lysosomal damage, cells were incubated with LysoTracker green (1:2000) for 30 min and stimulated as described. Lysosomal damage was defined as loss of LysoTracker fluorescence as assessed by flow cytometry. All flow cytometry experiments were performed on an LSRII cytometer (BD Biosciences), data were acquired by DIVA software (BD Biosciences) and analyzed with FlowJo software (Tree Star Inc., Ashland, Oreg.).

[2] = tested on: caspase-1; assay: Caspase-1 cleavage/activation in mouse macrophages (Western blot p10); type: cell-based; settings: LPS-primed wild type bone marrow-derived macrophages, Aβ and reverse Aβ 10 μM
Procedure: Bone marrow derived macrophages were generated as described (Severa, M et al. Journal of Biological Chemistry 281:26188-26195 (2006)). Human PBMCs were isolated by from whole blood of healthy volunteers by density gradient centrifugation. Lysis of red blood cells was performed using red blood cell lysis buffer (Sigma). Experiments in PBMCs and macrophages were carried out at a cell density of 2×10^6 cells/ml. All primary cells and cell lines except THP-1 cells were cultured in DMEM supplemented with L-glutamine, ciprofloxacin (Cellgro, Manassas, Va.) and 10% fetal calf serum (Hyclone, Logan, Utah). THP-1 cells were cultured in RPMI supplemented with 10% fetal calf serum (Hyclone), L-glutamine, sodium pyruvate (Cellgro), and ciprofloxacin. One day prior to stimulation, THP-1 cells were differentiated using 0.5 μM PMA for three hours, washed three times and plated for stimulation. All experiments that were performed for Western blot analysis were carried out in serum free DMEM medium. ATP stimulations were carried out at 5 mM one hour prior to harvesting supernatants.
Cell culture supernatants were precipitated by adding an equal volume of methanol and 0.25 volumes of chloroform, vortexed and centrifuged at 20.000×g for 10 min. The upper phase was discarded and 500 μl of methanol was added to the interphase. This mixture was centrifuged at 20.000×g for 10 min and the protein pellet dried at 55° C., resuspended in Laemmli buffer and boiled at 99° C. for 5 min. Samples were separated by SDS-PAGE (15%) and transferred onto nitrocellulose membranes. As indicated, blots were incubated with rabbit polyclonal antibody to anti murine caspase-1 p10 (sc-514, Santa Cruz Biotechnology, Santa Cruz, Calif.), rabbit polyclonal anti human caspase-1 p10 (sc-515, Santa Cruz Biotechnology), rabbit polyclonal anti human cleaved IL-1β (Asp116) (Cell Signaling, Boston, Mass.) or rabbit polyclonal anti murine cathepsin B (R&D Systems, Minneapolis, Minn.).
Cell culture supernatants were precipitated by adding an equal volume of methanol and 0.25 volumes of chloroform, vortexed and centrifuged at 20,000×g for 10 min. The upper phase was discarded and 500 μl of methanol was added to the interphase. This mixture was centrifuged at 20,000×g for 10 min and the protein pellet dried at 55° C., resuspended in Laemmli buffer and boiled at 99° C. for 5 min Samples were separated by SDS-PAGE (15%) and transferred onto nitrocellulose membranes. Blots were incubated with rabbit polyclonal antibody to anti murine caspase-1 p10 (sc-514, Santa Cruz Biotechnology, Santa Cruz, Calif.).

[3] = tested on: mice; assay: Stereotaxic brain microinjection, microglial recruitment (F4/80); type: in vivo, mouse; settings: wild type mice, 1 μl of 1 mg/ml into striatum, 48 h
Procedure: Injections were performed as described^27. Briefly, six week old mice (n=4 in each group) were anesthetized with ketamine (100 mg/kg i.p.; Webster) and xylazine (10 mg/kg i.p.; Webster), placed on a homoeothermic heating blanket (Harvard Apparatus) and immobilized in a stereotaxic frame (Stoelting). A linear skin incision was made under sterile conditions, and a small hole was created in the skull using a dental drill 1 mm anterior and 2 mm lateral to bregma over both hemispheres. 1 μl Aβ in sterile pyrogen-free saline (1 mg/ml) was inoculated on the left side, and the same amount of revAβ was inoculated on the right side, using separate Hamilton syringes. Mice were allowed to fully recover on a heating blanket. After 48 hours, the mice were anesthetized with ketamine/xylazine and transcardially perfused with 4% paraformaldehyde in PBS. Brains were removed, placed in 4% PFA overnight at 4° C., and then transferred to PBS and stored at 4° C. until sectioning. Coronal 60 μm sections were taken using a vibratome (Leica). […] To quantify the number of microglia recruited to sites of microinjection, serial sections from each site of injection were visualized by fluorescence microscopy (Nikon Eclipse E400) and digitally photographed. […] Fluorescence intensity of microglia immunoreactive for F4/80 at each injection site was quantified using ImageJ (NIH).

[4] = tested on: CAD mouse neuronal cells; assay: Neurotoxicity assay, CAD mouse neuronal cells with or without microglia; type: cell-based
Procedure: (§2) For assessment of microglia-induced neurotoxicity, CAD mouse neuronal cells^47 were seeded on poly-L-lysine coated glass cover slips and grown in F12/DMEM supplemented with ciprofloxacin (Cellgro, Manassas, Va.) and 10% fetal calf serum (Hyclone, Logan, Utah) for 24 h. Differentiation was induced by withdrawal of serum for 48 h Immortalized microglia from wildtype or caspase-1^−/− mice were added in serum free medium to obtain mixed neuronal/microglial cultures and immediately stimulated. 72 h after stimulation with Aβ or media, cells were fixed, stained for the neuron-specific marker TuJ-1 and microglial marker CD11b, and imaged by confocal microscopy (Leica SP2 AOBS). Caspase-1 activity in microglial cells was assessed using the caspase-1 FLICA™ kit (Immunochemistry Technologies, Bloomington, Minn.) according to the manufacturer's instructions.

[5] = tested on: caspase-1; assay: Caspase-1 activation in microglia (FLICA, confocal microscopy, flow cytometry); type: cell-based, mouse; settings: immortalized microglia, Aβ 10 μM, revAβ 10 μM, ATP 1 mM, 4 h
Procedure: as §2, §1
IL-1β maturation is controlled by caspase-1 after assembly of the inflammasome, a multi protein complex that activates pro-caspase-1. In order to test whether Aβ activates caspase-1, we measured levels of activated caspase-1 using a fluorescent cell permeable probe (FAM-YVAD-Fmk), which covalently binds only to activated caspase-1 (Fluorescent labeled Inhibitors of Caspases, FLICA)^14. […] Similar results were obtained in primary microglial cultures (FIG. 15c).

Aβ 1-42 peptide
cells with enlarged lysosomes not staining for cathepsin B ([1]; microglia, 4 h after Aβ stimulation): 15-20% | diameter of Aβ-containing lysosomes, largest observed ([1]; microglia, Aβ-FITC): up to 11 μm | diameter of Aβ-containing lysosomes, mean ([1]; microglia, Aβ-FITC): 4.1±0.4 μm | cells with extensive enlargement and swelling of Aβ-containing lysosomes ([1]; microglia, of all cells): ~15% | cells negative for LysoTracker fluorescence ([1]; wild type microglia, Aβ 1, 3 and 10 μM, flow cytometry): increased dose-dependently; also recorded: induced loss of LysoTracker Green fluorescence | caspase-1 cleavage (p10) induced by the stimulus [2]: induced caspase-1 cleavage (p10) | microglia around the injection site (F4/80) [3]: strong recruitment and chemotaxis of microglia | neuronal cell death ([4]; mixed neuronal/microglial cultures with wild type microglia, Aβ 10 μM, 72 h): widespread neuronal cell death | effects on neuronal cells ([4]; neuronal mono-culture): only minimal morphological and quantitative effects | caspase-1 positive microglial cells after stimulation [5]: robust increase

From patent publication US20100150938A1, “METHODS AND COMPOSITIONS FOR REDUCING INFLAMMATION AND TREATING INFLAMMATORY DISORDERS” (UNIVERSITY OF MASSACHUSETTS, priority 2008, published 2010)
